Results on four compounds are retold here after patent EP2935252B1, “NOVEL BIS-CHROMONE DERIVATIVES, METHODS FOR THEIR PREPARATION AND USES THEREOF” (Rijksuniversiteit te Groningen, priority 2012, dated 2014).

As a reminder, the IC50 is the point on the concentration scale where inhibition reaches its midpoint. The low end stands for inhibition by little substance, the high end for a need for much substance.

One data set concerns LAD2 mast cell line. Nature of the data set: β-hexosaminidase release assay: inhibition of Compound 48/80-evoked mast cell degranulation. Type of data set: cell-based, human. The following applies: for IC50: LAD2 cells; for efficacy: concentration response curves, Fig. 3, Compound 48/80 1.0 µM; for change in inhibitory activity after photoisomerization: non-irradiated vs 365 nm irradiated; for potency relative to DSCG: β-hexosaminidase release assays, Fig. 3. Here is the method: LAD2 Cell culture The human mast cell line LAD2 was kindly provided by Dr. A. Kirshenbaum (National Institute of Allergy and Infectious Diseases, Bethesda, MD). LAD2 cells were cultured in suspension at 37 °C, 95% relative humidity and 5% CO2 in StemPro-34 Serum-free medium (Invitrogen) supplemented with 2 mM L-glutamine (Sigma Aldrich), 100 IU/mL penicillin (Sigma Aldrich), 100 µg/mL streptomycin (Sigma Aldrich) and 100 ng/ml rhSCF (Invitrogen). Cells were not allowed to grow beyond a density of 5.0 x 10^5 cells/mL and fresh medium was supplied once a week.
β-Hexosaminidase Assay β-Hexosaminidase release was measured according to a previously published method.^28 In short, 50 µL of supernatant was transferred to a 96-well plate. To this 100 µL of a 2 mg/mL solution of p-nitrophenyl- N-acetyl-D-glucosaminidine in citrate buffer pH 4.5 was added. The plate was incubated at 37 °C for 1 h. The reaction was stopped by adding 100 µL of 0.4 M glycine solution and the absorbance was measured on a plate reader at a wavelength of 405 nm. Subsequently, the percentage released β-hexosaminidase was determined by comparison with the absorption of cell lysate of the same cells using the following formula: (supernatant)/(supernatant + lysate) × 100% = % Reaased β−Hexosaminidase. [formula]
Inhibitory Activity Tests LAD2 cells were suspended in HEPES buffer at a concentration of 50,000 cells/mL. 80 µL of cell suspension was transferred to a microreaction cup to which 10 µL of inhibitor solution was added. This was incubated at 37 °C for 30 min after which 10 µL of a Compound 48/80 solution was added. Next, the cell suspension was incubated for 30 min at 37 °C and the β-hexosaminidase release was assayed.
MAC and PAC seem to have an almost 100 times greater inhibitory potency than DSCG.
Next, the difference in inhibitory activity between the two photoisomers of DAC, MAC and PAC was determined. The inhibitory activity was determined for each compound at two concentrations that were on the steep part of the concentration response curve, because at these concentrations a possible difference in inhibitory activity is best detectable. LAD2 cells were incubated with either non-irradiated solutions of DAC, MAC and PAC or with solutions that were irradiated with 365 nm light prior incubation. After evoking a degranulation with Compound 48/80, β-hexosaminidase release was determined.. […] At a concentration of 10 µM the relative difference in inhibitory activity between the two forms of PAC is 25% (see Figure 4).

Data set [1] can be described thus: Ratio of trans and cis photoisomers determined by RP-HPLC at the isosbestic point. Type of data set: physicochemical. On the procedure: Photoswitching Experiments Irradiation experiments were performed with a Spectroline ENB-280C/FE UV lamp (365 nm) and Thor Labs OSL1-EC Fiber Illuminator (white light).
The photoswitchable behavior of DAC, MAC and PAC was studied using UV-VIS spectroscopy and RP-HPLC. The trans-isomers of DAC, MAC and PAC have a characteristic absorbance maximum between 300 and 400 nm in water. This absorbance maximum decreases when the molecules are photoswitched to their cis-isomers and a new absorbance maximum appears around 430 nm (Fig. 2A-C).^25 Isosbestic points at 405 nm (DAC), 270 nm (MAC) and 270 nm (PAC) clearly illustrate the selective isomerization and reversibility of the photoswitching process. Using RP-HPLC, the ratio of photoisomers was determined for both the non-irradiated and 365 nm-irradiated forms of DAC, MAC and PAC (Table 1). Higher photostationary states were obtained when the photoswitchable inhibitors were irradiated with 365 nm light in DMSO as compared to water (Table 1). Therefore, the compounds were switched at a high concentration in DMSO and diluted in water to obtain a maximum concentration of 1% DMSO (v/v). […]
Table 1 Ratio of trans and cis isomers of the photoswitchable inhibitors under different conditions. Ratios are determined at the isosbestic point (DAC=405 nm, MAC=270 nm, PAC=270 nm) with RP-HPLC (C18, flow 1 mL/min, MeCN and H3PO4pH=3.0).

Setting [2] is: Homo sapiens, light or radiation study, degranulation evoked by 1.0 µM Compound 48/80, non-irradiated inhibitors, 30 min pre-incubation, n=3.

With `O=C([O-])c1cc(=O)c2cc(/N=N/c3ccc4oc(C(=O)[O-])cc(=O)c4c3)ccc2o1.[Na+].[Na+]` [DAC, Sodium (E)-6,6'-(diazene-1,2-diyl)bis(4-oxo-4H-chromene-2-carboxylate)], the inhibitory activity result in the data set with LAD2 mast cell line (Compound 48/80 1.0 µM) was “significantly greater inhibitory activity than the original drug DSCG”. Also, the IC50 in the data set on LAD2 mast cell line (setting [2]) came to 272 µM. Further, in the data set with LAD2 mast cell line, the efficacy entry is recorded as “greater efficacy than PAC” and the “change in inhibitory activity after photoisomerization” value was “a significant change in inhibitory activity after photoisomerization was not observed”.
On to `O=C([O-])c1cc(=O)c2c(OCc3cccc(/N=N/c4cccc(COc5cccc6oc(C(=O)[O-])cc(=O)c56)c4)c3)cccc2o1.[Na+].[Na+]` [MAC, Sodium (E)-5,5'-(((diazene-1,2-diylbis(3,1-phenylene))bis(methylene))bis(oxy))bis(4-oxo-4H-chromene-2-carboxylate)], for which the inhibitory activity entry with LAD2 mast cell line (Compound 48/80 1.0 µM) is recorded as “significantly greater inhibitory activity than the original drug DSCG”. In the data set with LAD2 mast cell line (setting [2]), this compound returned an IC50 of 10 µM. Moreover, in the data set on LAD2 mast cell line, the efficacy result was “greater efficacy than PAC” and the “potency relative to DSCG” value is given as approximately 100 times.
Turning to `O=C([O-])c1cc(=O)c2c(OCC(O)COc3cccc4oc(C(=O)[O-])cc(=O)c34)cccc2o1.[Na+].[Na+]` [DSCG, DiSodiumCromoGlycate, reference compound], the inhibitory activity result was “did not show any inhibitory activity” with LAD2 mast cell line (Compound 48/80 1.0 µM) and “able to inhibit mast cell degranulation” with LAD2 mast cell line (lower concentration of Compound 48/80 (0.1 µM), data not shown). The same compound registered an IC50 with LAD2 mast cell line (degranulation evoked by 1.0 µM Compound 48/80, n=3) of more than 1000 µM.
Consider `O=C([O-])c1cc(=O)c2c(OCc3ccc(/N=N/c4ccc(COc5cccc6oc(C(=O)[O-])cc(=O)c56)cc4)cc3)cccc2o1.[Na+].[Na+]` [PAC, Sodium (E)-5,5'-(((diazene-1,2-diylbis(4,1-phenylene))bis(methylene))bis(oxy))bis(4-oxo-4H-chromene-2-carboxylate)], for which the inhibitory activity entry with LAD2 mast cell line (Compound 48/80 1.0 µM) is “significantly greater inhibitory activity than the original drug DSCG”. In addition, the inhibition at 10 µM with LAD2 mast cell line (Homo sapiens, LAD2, light or radiation study, concentration of 10 µM, non-irradiated form more active than irradiated form, read-out: relative difference in inhibitory activity between non-irradiated and 365 nm irradiated form) was 25%. In the data set on LAD2 mast cell line (setting [2]), this compound gave an IC50 of 28 µM. For the same compound, in the data set on LAD2 mast cell line, the “change in inhibitory activity after photoisomerization” value is reported as “A significant difference was observed” and the “potency relative to DSCG” value was approximately 100 times. Besides, the “cis isomer in the photo stationary state (PSS)” value in data set [1] (irradiated form (365 nm)) is recorded as 81%. Also, in data set [1] (non-irradiated form), the “trans isomer in the photo stationary state (PSS)” value is reported as 91%.
